Data from patent US20170080063A1, “HIGHLY SOLUBLE AQUAPORIN-4 EXTRACELLULAR LOOP C PEPTIDE IMMUNIZATION FOR TREATMENT OF NEUROMYELITIS OPTICA” (THE JOHNS HOPKINS UNIVERSITY, priority 2014, published 2017).
“Also recorded” adds a separate entry of the source.

Legend:
[1] = system: mice; assay: Neurological symptoms / clinical phenotype in mice given peptide; type: in vivo, mouse; details: for neurological symptoms (paralysis from spinal cord inflammation, visual impairment from optic nerve inflammation): mice administered the peptide; for clinical phenotype / autoimmune neurological disease after immunization: immunized AQP4 null mice
[2] = system: AQP4 null mice; assay: Antibody production against AQP4 extracellular loop peptides after immunization; type: in vivo, mouse; details: AQP4 null mice immunized with the peptides
[3] = system: T cells; assay: T cell proliferation assay (3H-thymidine incorporation) with spleen cells of immunized mice; type: cell-based, mouse; details: for T cell response against the peptide: T cells from AQP4 null mice immunized with AQP4 loop peptides
[4] = system: IL-17 and interferon-gamma (IFN-γ) cytokine-producing cells; assay: ELISPOT assay of cytokine-producing cells; type: cell-based, mouse
Protocol: ELISPOT assay was used to determine the frequency of cytokine-producing cells in polarized and unpolarized cell cultures. The day before cells were to be harvested from immunized AQP4 null mice, the wells of an immobilon P-bottom 96-well plates (Multiscreen®HTS, 0.45 μm pore size; EMB Millipore, USA) were pre-wet with 35% ethanol for 30 seconds, washed three times with coating buffer, and coated with 50 μl of a 1:250 dilution of capture antibody, anti-IL17 (Th17), provided with ELISPOT Ready-Set-Go kits (eBioscience). Plates were covered and incubated overnight at 4° C. Wells were then washed twice with coating buffer and once with complete media; plates were stored in the incubator until cells were prepared. Spleen and lymph node cells were prepared as described above and prepared with and without polarizing conditions. Harvested cells were 2-fold serially diluted in media containing 3×10^7 irradiated splenocytes (irradiated with 3,500 rads) as antigen-presenting cells (APCs); APCs mixed 12:1 with 1.25×10^5 lymph node cells per well yielded the most well-defined spots. After overnight in culture, wells were washed (TBS+0.05% Tween®-20). Detection antibody was diluted 1:250 in diluents provided in the kit and 50 μl applied to each well for 2 hours at RT. After washing, streptavidin-alkaline phosphatase was added to each well (1:2500; Sigma) for 45 minutes. After further washing, signal was developed with development solution containing BCIP and NBT (i.e. 150 mM Tris-HCl, 5 mM MgCl2, 100 mM NaCl, pH9.5 supplemented with 4 mM levamisole (Sigma), 0.15 mg/ml 5-bromo-4-chloro-3-indolyl-phosphate, and 0.36 mg/ml 4-nitro blue tetrazolium chloride (Roche) for 10 minutes at room temperature in the dark. Reaction was stopped by washing with PBS then distilled H2O before air drying. Spots were imaged with an Immunospot Series 3 Analyzer (Cellular Technology, Ltd.) and counted using Image J and the “find Maxima” function. Results are expressed as the mean of triplicate values (±standard error of the mean, SEM) adjusted to per 10^6 cells per well. Student's t-test was performed on data; p<0.05 was considered statistically significant.

[5] = after polarization to Th17 phenotype, exposed to peptide
[6] = after polarization to Th17 phenotype, exposed to peptide, listed as AQP4135-53
[7] = unpolarized cell culture exposed to peptide, versus no stimulation
[8] = unpolarized cell culture exposed to peptide, versus no stimulation, listed as AQP4135-53

Substance | neurological symptoms (paralysis from spinal cord inflammation, visual impairment from optic nerve inflammation) [1] | antibody production against the loop peptide [2] | T cell response against the peptide [3] | clinical phenotype / autoimmune neurological disease after immunization [1] | other results
GILYLVTPPSVVGGLGVTMV [SEQ ID NO: 9, reference compound] | no such neurological symptoms |  |  |  | 
GNWENH (listed as Homo sapiens) [loop E, AQP4 extracellular loop E peptide (human 212-30 used)] |  | no evidence of antibody production |  |  | 
GTEKPLPV (listed as Homo sapiens) [loop A, AQP4 extracellular loop A peptide (human 56-69 used)] |  | no evidence of antibody production |  |  | 
LVTPPSVVGGLGVTMVHGN [SEQ ID NO: 8] | development of phenotypes | no evidence of antibody production | remarkable T cell response; also recorded: robust T cell response; also recorded: robust reaction | did not develop autoimmune neurological disease | number of IFN-γ producing cells [4, 5]: barely detectable; number of IL-17 producing cells [4, 5]: doubled; number of IFN-γ producing cells [4, 6]: nearly undetectable; number of IL-17 producing cells [4, 6]: almost doubled; number of IFN-γ producing cells [4, 7]: significant number; number of IL-17 producing cells [4, 7]: significant number; number of IFN-γ producing cells [4, 8]: significant levels; number of IL-17 producing cells [4, 8]: significant levels
MOG peptide 35-55: myelin-oligodendrocyte glycoprotein (MOG) peptide 35-55 (MEVGWYRSPFSRVVHLYRNGK; UniProt Q61885 63-83, looked up, fragment) [reference compound] |  |  |  |  | T cell proliferative activity (incorporation of tritiated-thymidine) ([3]; T cells from control wildtype mice (wt-MOG) immunized with MOG peptide 35-55): showed proliferative activity
TPPSVVGGLGVTMVHGNLTAG (listed as Homo sapiens) [loop C, peptide corresponding to the second extracellular loop of AQP4] |  | No evidence of antibody production | robust T cell response | no clinical phenotype | T cell response against the peptide ([3]; listed as loop C peptide): robust T cell response; also recorded: stimulated a T cell response
